Reference: patent publication US8586593B2, “Insecticidal compounds” (Syngenta Crop Protection, Inc., priority 2009, dated 2013)

Columns and labels:
Type in all cases: in vivo
Plutella xylostella = Plutella xylostella (diamond back moth) larval test on artificial diet; details: 144 h, 200 ppm (concentration in well 18 ppm), L2 larvae, larval mortality and growth regulation after 6 days
Method: (§1) 24-well microtiter plate (MTP) with artificial diet was treated with test solutions at an application rate of 200 ppm (concentration in well 18 ppm) by pipetting. After drying, the MTP's were infested with L2 larvae (7-12 per well). After an incubation period of 6 days, samples were checked for larval mortality and growth regulation.

Diabrotica balteata = Diabrotica balteata (corn root worm) larval test on artificial diet; details: 120 h, 200 ppm (concentration in well 18 ppm), L2 larvae, larval mortality and growth regulation after 5 days
Method: as §1, with “A 24-well” for “24-well”, “with” for “with L2”, “(L2) (6-10” for “(7-12”, “5” for “6”, “mortality,” for “mortality”

Spodoptera littoralis = Spodoptera littoralis (Egyptian cotton leafworm) leaf disc spray test; details: foliar, 72 h, 200 ppm sprayed on cotton leaf discs, 5 L1 larvae, mortality, feeding behavior and growth regulation 3 days after treatment
From the text: Spodoptera littoralis (Egyptian Cotton Leafworm)
Cotton leaf discs were placed on agar in a 24-well microtiter plate and sprayed with test solutions at an application rate of 200 ppm. After drying, the leaf discs were infested with 5 L1 larvae. The samples were checked for mortality, feeding behavior, and growth regulation 3 days after treatment (DAT).

Heliothis virescens = Heliothis virescens (tobacco budworm) egg test on artificial diet; details: 96 h, 200 ppm (concentration in well 18 ppm), eggs 0-24 h old on artificial diet, egg mortality, larval mortality and growth regulation after 4 days
Method: Eggs (0-24 h old) were placed in 24-well microtiter plate on artificial diet and treated with test solutions at an application rate of 200 ppm (concentration in well 18 ppm) by pipetting. After an incubation period of 4 days, samples were checked for egg mortality, larval mortality, and growth regulation.

Measured: pest or weed control at 200 ppm

O=C(Nc1ccc(C(F)(F)F)cc1C1CCN(Cc2ccc(-c3ncc(F)cn3)cc2)CC1)c1ccnc(Cl)c1 [Compound A2, 2-chloro-N-(2-{1-[4-(5-fluoro-pyrimidin-2-yl)-benzyl]-piperidin-4-yl}-4-trifluoromethyl-phenyl)-isonicotinamide]
≥ 80%: all assays above

O=C(Nc1ccc(F)cc1C1CCN(Cc2ccc(-c3ncc(Cl)cn3)cc2)CC1)c1ccnc(Cl)c1 [Compound A10, 2-chloro-N-(2-{1-[4-(5-chloro-pyrimidin-2-yl)-benzyl]-piperidin-4-yl}-4-fluoro-phenyl)-isonicotinamide]
≥ 80%: all assays above

O=C(Nc1cc(OC(F)(F)F)ccc1C1CCN(Cc2ccc(-c3ncc(Cl)cn3)cc2)CC1)c1ccnc(Cl)c1 [Compound A12, 2-chloro-N-(2-{1-[4-(5-chloro-pyrimidin-2-yl)-benzyl]-piperidin-4-yl}-5-trifluoromethoxy-phenyl)-isonicotinamide]
≥ 80%: all assays above

O=C(Nc1ccc(C(F)(F)F)nc1C1CCN(Cc2ccc(-c3ncc(Cl)cn3)cc2)CC1)c1ccnc(Cl)c1 [Compound B1, 2-chloro-N-{1′-[4-(5-chloro-pyrimidin-2-yl)-benzyl]-6-trifluoromethyl-1′,2′,3′,4′,5′,6′-hexahydro-[2,4′]bipyridinyl-3-yl}-isonicotinamide]
≥ 80%: all assays above

O=C(Nc1ccc(C(F)(F)F)nc1C1CCN(Cc2ccc(-c3ncc(F)cn3)cc2)CC1)c1ccnc(Cl)c1 [Compound B2, 2-chloro-N-{1′-[4-(5-fluoro-pyrimidin-2-yl)-benzyl]-6-trifluoromethyl-1′,2′,3′,4′,5′,6′-hexahydro-[2,4′]bipyridinyl-3-yl}-isonicotinamide]
≥ 80%: all assays above

O=C(Nc1ccc(OC(F)F)nc1C1CCN(Cc2ccc(-c3ncc(Cl)cn3)cc2)CC1)c1ccnc(Cl)c1 [Compound B6, 2-chloro-N-{1′-[4-(5-chloro-pyrimidin-2-yl)-benzyl]-6-difluoromethoxy-1′,2′,3′,4′,5′,6′-hexahydro-[2,4′]bipyridinyl-3-yl}-isonicotinamide]
≥ 80%: all assays above

O=C(Nc1c(F)cc(C(F)(F)F)nc1C1CCN(Cc2ccc(-c3ncc(Cl)cn3)cc2)CC1)c1ccnc(Cl)c1 [Compound B7, 2-chloro-N-{1′-[4-(5-chloro-pyrimidin-2-yl)-benzyl]-4-fluoro-6-trifluoromethyl-1′,2′,3′,4′,5′,6′-hexahydro-[2,4′]bipyridinyl-3-yl}-isonicotinamide]
≥ 80%: all assays above

O=C(Nc1ccc(C(F)(F)F)cc1C1CC[N+]([O-])(Cc2ccc(-c3ncc(Cl)cn3)cc2)CC1)c1ccnc(Cl)c1 (stereo not drawn) [Compound C1, 2-chloro-N-(2-{1-[4-(5-chloro-pyrimidin-2-yl)-benzyl]-1-oxy-piperidin-4-yl}-4-trifluoromethyl-phenyl)-isonicotinamide]
≥ 80%: all assays above

O=C(Nc1ccc(C(F)(F)F)cc1C1CCN(Cc2ccc(-c3ncc(Cl)cn3)cc2)CC1)c1ccnc(Cl)c1 [Compound E1, 2-chloro-N-(2-{1-[4-(5-chloro-pyrimidin-2-yl)-benzyl]-piperidin-4-yl}-4-trifluoromethyl-phenyl)-isonicotinamide acetate]
≥ 80%: Plutella xylostella

O=C(Nc1ccc(C(F)(F)F)cc1C1CCN(Cc2ccc(-c3ncc(Cl)cn3)cc2)CC1)c1ccnc(Cl)c1 [Compound E8]
≥ 80%: Diabrotica balteata | Spodoptera littoralis | Heliothis virescens
